According to publication PMC12638251, “Uridine-sensitized screening identifies demethoxy-coenzyme Q and NUDT5 as regulators of nucleotide synthesis” (Nature Metabolism, 2025):

Molecular target: T1, PPAT (amidophosphoribosyltransferase) (Homo sapiens, UniProt Q06203)
T1 construct: with NUDT5
Test: native PAGE of K562 lysate with PRPP dose curve (loss of NUDT5-PPAT oligomer); co-immunoprecipitation with […] PRPP
Type: biochemical

T1 sequence (Q06203 12-517): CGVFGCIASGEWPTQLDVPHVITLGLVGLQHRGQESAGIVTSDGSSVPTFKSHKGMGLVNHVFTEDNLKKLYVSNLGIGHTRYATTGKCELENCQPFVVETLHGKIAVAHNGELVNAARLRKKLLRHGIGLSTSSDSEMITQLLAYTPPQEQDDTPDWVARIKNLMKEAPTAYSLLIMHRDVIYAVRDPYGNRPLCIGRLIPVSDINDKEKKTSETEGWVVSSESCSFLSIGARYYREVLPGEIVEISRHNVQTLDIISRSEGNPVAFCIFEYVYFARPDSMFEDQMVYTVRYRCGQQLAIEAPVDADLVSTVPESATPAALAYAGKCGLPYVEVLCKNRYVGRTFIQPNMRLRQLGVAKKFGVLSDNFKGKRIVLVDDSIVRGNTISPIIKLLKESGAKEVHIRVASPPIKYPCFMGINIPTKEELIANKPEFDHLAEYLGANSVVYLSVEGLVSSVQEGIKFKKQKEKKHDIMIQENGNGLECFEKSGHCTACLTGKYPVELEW
T1 sequence (O95848 whole entry partner): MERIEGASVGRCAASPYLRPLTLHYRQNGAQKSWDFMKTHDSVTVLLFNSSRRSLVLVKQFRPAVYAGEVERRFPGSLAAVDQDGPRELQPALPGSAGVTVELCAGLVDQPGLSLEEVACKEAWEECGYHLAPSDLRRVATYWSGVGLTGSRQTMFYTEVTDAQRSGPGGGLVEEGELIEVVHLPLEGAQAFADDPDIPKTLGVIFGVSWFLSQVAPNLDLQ

- IC50: 100 µM
SMILES: O=P(O)(O)OC[C@H]1OC(OP(=O)(O)OP(=O)(O)O)[C@H](O)[C@@H]1O (stereo partly shown) [PRPP, phosphoribosyl pyrophosphate]
